Reference: patent publication US12538701B2, “Compound and organic light emitting device comprising the same” (LG Chem, Ltd., priority 2020, dated 2026)

Test: Solubility experiment in cyclohexanone
Type: physicochemical
Settings: normal temperature/pressure, whether 0.1 wt % or more was dissolved
Protocol: In order to confirm the solubility in the solvent used in the solution process of the compounds prepared in the Preparation Examples and the comparative compounds, each of them was dissolved in the solvent cyclohexanone (CHON) under normal temperature/pressure conditions, and it was confirmed whether 0.1 wt % or more was dissolved.

Compound | Solubility, Solvent CHON
CC1(C)c2cc(-c3cc4ccccc4o3)ccc2-c2ccc(N(c3ccccc3)c3ccc4c5c6ccc7c(c6ccc5n(-c5ccccc5)c4c3)c3ccc(N(c4ccccc4)c4ccc5c(c4)C(C)(C)c4cc(-c6cc8ccccc8o6)ccc4-5)cc3n7-c3ccccc3)cc21 [Comparative Compound I, reference compound] | X (0.1 wt. % or more insoluble)
Cc1cccc(N(c2ccc3c(ccc4c5c(ccc6c7ccc8cc(N(c9cccc(C)c9)c9cccc%10c9oc9ccccc9%10)ccc8c7n(-c7ccccc7)c65)n(-c5ccccc5)c34)c2)c2cccc3c2oc2ccccc23)c1 [Compound 1] | ◯ (0.1 wt. % or more soluble)
Cc1cccc(N(c2ccc3c(ccc4c5cc6c7ccc8cc(N(c9cccc(C)c9)c9cccc%10c9oc9ccccc9%10)ccc8c7n(-c7ccccc7)c6cc5n(-c5ccccc5)c34)c2)c2cccc3c2oc2ccccc23)c1 [Compound 2] | ◯ (0.1 wt. % or more soluble)
Cc1cccc(N(c2ccc3c(ccc4c5cc6c(cc5n(-c5ccccc5)c34)c3ccc4cc(N(c5cccc(C)c5)c5cccc7c5oc5ccccc57)ccc4c3n6-c3ccccc3)c2)c2cccc3c2oc2ccccc23)c1 [Compound 3] | ◯ (0.1 wt. % or more soluble)
Cc1cccc(N(c2ccc3c(ccc4c5c6c7ccc8cc(N(c9cccc(C)c9)c9cccc%10c9oc9ccccc9%10)ccc8c7n(-c7ccccc7)c6ccc5n(-c5ccccc5)c34)c2)c2cccc3c2oc2ccccc23)c1 [Compound 4] | ◯ (0.1 wt. % or more soluble)
Cc1cccc(N(c2ccc3c(ccc4c5ccc6c7ccc8cc(N(c9cccc(C)c9)c9cccc%10c9oc9ccccc9%10)ccc8c7n(-c7ccccc7)c6c5n(-c5ccccc5)c34)c2)c2cccc3c2oc2ccccc23)c1 [Compound 5] | ◯ (0.1 wt. % or more soluble)
c1ccc(-n2c3ccccc3c3cc(-c4ccc(N(c5ccc6ccccc6c5)c5ccc6c(ccc7c8c(ccc9c%10ccc%11cc(N(c%12ccc(-c%13ccc%14c(c%13)c%13ccccc%13n%14-c%13ccccc%13)cc%12)c%12ccc%13ccccc%13c%12)ccc%11c%10n(-c%10ccccc%10)c98)n(-c8ccccc8)c67)c5)cc4)ccc32)cc1 [Compound 6] | ◯ (0.1 wt. % or more soluble)
c1ccc(-n2c3ccccc3c3cc(-c4ccc(N(c5ccc6ccccc6c5)c5ccc6c(ccc7c8cc9c%10ccc%11cc(N(c%12ccc(-c%13ccc%14c(c%13)c%13ccccc%13n%14-c%13ccccc%13)cc%12)c%12ccc%13ccccc%13c%12)ccc%11c%10n(-c%10ccccc%10)c9cc8n(-c8ccccc8)c67)c5)cc4)ccc32)cc1 [Compound 7] | ◯ (0.1 wt. % or more soluble)
c1ccc(-n2c3ccccc3c3cc(-c4ccc(N(c5ccc6ccccc6c5)c5ccc6c(ccc7c8cc9c(cc8n(-c8ccccc8)c67)c6ccc7cc(N(c8ccc(-c%10ccc%11c(c%10)c%10ccccc%10n%11-c%10ccccc%10)cc8)c8ccc%10ccccc%10c8)ccc7c6n9-c6ccccc6)c5)cc4)ccc32)cc1 [Compound 8] | ◯ (0.1 wt. % or more soluble)
c1ccc(-n2c3ccccc3c3cc(-c4ccc(N(c5ccc6ccccc6c5)c5ccc6c(ccc7c8c9c%10ccc%11cc(N(c%12ccc(-c%13ccc%14c(c%13)c%13ccccc%13n%14-c%13ccccc%13)cc%12)c%12ccc%13ccccc%13c%12)ccc%11c%10n(-c%10ccccc%10)c9ccc8n(-c8ccccc8)c67)c5)cc4)ccc32)cc1 [Compound 9] | ◯ (0.1 wt. % or more soluble)
c1ccc(-n2c3ccccc3c3cc(-c4ccc(N(c5ccc6ccccc6c5)c5ccc6c(ccc7c8ccc9c%10ccc%11cc(N(c%12ccc(-c%13ccc%14c(c%13)c%13ccccc%13n%14-c%13ccccc%13)cc%12)c%12ccc%13ccccc%13c%12)ccc%11c%10n(-c%10ccccc%10)c9c8n(-c8ccccc8)c67)c5)cc4)ccc32)cc1 [Compound 10] | ◯ (0.1 wt. % or more soluble)

The next lines start with the values.

Solubility, Solvent CHON | Compound
◯ (0.1 wt. % or more soluble) | c1ccc(N(c2ccc3cc(-c4cc5ccccc5o4)ccc3c2)c2ccc3c(ccc4c5c(ccc6c7ccc8cc(N(c9ccccc9)c9ccc%10cc(-c%11cc%12ccccc%12o%11)ccc%10c9)ccc8c7n(-c7ccccc7)c65)n(-c5ccccc5)c34)c2)cc1 [Compound 11]
◯ (0.1 wt. % or more soluble) | c1ccc(N(c2ccc3cc(-c4cc5ccccc5o4)ccc3c2)c2ccc3c(ccc4c5cc6c7ccc8cc(N(c9ccccc9)c9ccc%10cc(-c%11cc%12ccccc%12o%11)ccc%10c9)ccc8c7n(-c7ccccc7)c6cc5n(-c5ccccc5)c34)c2)cc1 [Compound 12]
◯ (0.1 wt. % or more soluble) | c1ccc(N(c2ccc3cc(-c4cc5ccccc5o4)ccc3c2)c2ccc3c(ccc4c5cc6c(cc5n(-c5ccccc5)c34)c3ccc4cc(N(c5ccccc5)c5ccc7cc(-c8cc9ccccc9o8)ccc7c5)ccc4c3n6-c3ccccc3)c2)cc1 [Compound 13]
◯ (0.1 wt. % or more soluble) | c1ccc(N(c2ccc3cc(-c4cc5ccccc5o4)ccc3c2)c2ccc3c(ccc4c5c6c7ccc8cc(N(c9ccccc9)c9ccc%10cc(-c%11cc%12ccccc%12o%11)ccc%10c9)ccc8c7n(-c7ccccc7)c6ccc5n(-c5ccccc5)c34)c2)cc1 [Compound 14]
◯ (0.1 wt. % or more soluble) | c1ccc(N(c2ccc3cc(-c4cc5ccccc5o4)ccc3c2)c2ccc3c(ccc4c5ccc6c7ccc8cc(N(c9ccccc9)c9ccc%10cc(-c%11cc%12ccccc%12o%11)ccc%10c9)ccc8c7n(-c7ccccc7)c6c5n(-c5ccccc5)c34)c2)cc1 [Compound 15]
◯ (0.1 wt. % or more soluble) | CC1(C)c2ccccc2-c2ccc(-n3c4cc5c6ccc7cc(N(c8ccccc8)c8ccc9cc(-c%10cc%11ccccc%11o%10)ccc9c8)ccc7c6n(-c6ccc7c(c6)C(C)(C)c6ccccc6-7)c5cc4c4ccc5cc(N(c6ccccc6)c6ccc7cc(-c8cc9ccccc9o8)ccc7c6)ccc5c43)cc21 [Compound 16]
◯ (0.1 wt. % or more soluble) | [2H]c1c([2H])c([2H])c(-n2c3cc4c5ccc6cc(N(c7ccccc7)c7ccc8cc(-c9cc%10ccccc%10o9)ccc8c7)ccc6c5n(-c5c([2H])c([2H])c([2H])c([2H])c5[2H])c4cc3c3ccc4cc(N(c5ccccc5)c5ccc6cc(-c7cc8ccccc8o7)ccc6c5)ccc4c32)c([2H])c1[2H] [Compound 17]
◯ (0.1 wt. % or more soluble) | CC(C)(C)c1ccc(N(c2ccc3cc(-c4cc5ccccc5o4)ccc3c2)c2ccc3c(ccc4c5cc6c(cc5n(-c5ccc(C(C)(C)C)cc5)c34)c3ccc4cc(N(c5ccc(C(C)(C)C)cc5)c5ccc7cc(-c8cc9ccccc9o8)ccc7c5)ccc4c3n6-c3ccc(C(C)(C)C)cc3)c2)cc1 [Compound 18]
